The conditions of data set [1]: conjugate acid pKa, cited from earlier work.
The nature of data set [2]: Accelerated oxidative degradation of benzylamine (CO2/O2, 55° C., 13C-NMR). The format is physicochemical. The following applies: 1 mol/L, CO2 (1 bar) and O2 (9 bar), 10 days, relative 13C-NMR peak areas. On the procedure: A solution of 10 mL of 1 mol/L BZA was placed in a Fischer-Porter vessel. […] Based on relative peak areas approximately 41% of the BZA had been converted to imine.

A short description of data set [3]: Accelerated oxidative degradation of diethanolamine solutions with sacrificial amine (CO2/O2, 55° C., 13C-NMR). The conditions noted are these: 5.9 mol/L DEA and 0.1 mol/L additive, CO2 (1 bar), O2 (9 bar), 115 hours.
Procedure: The effect of 3-aminomethylpyridine (3-AMPy) and benzylamine (BZA) on the degradation of DEA was investigated using accelerated degradation conditions designed to simulate longer-term degradation in a gas capture process. DEA solutions were thus prepared as follows: i) 6 mol/L DEA; ii) 5.9 mol/L DEA and 0.1 mol/L BZA; and iii) 5.9 mol/L DEA and 0.1 mol/L 3-AMPy. Each solution (10 ml) was placed in a Fischer-Porter vessel. The vessels were sealed and the remaining headspace of the vessels was filled with CO2 (1 bar) and O2 (9 bar). The liquid phase in the vessels was stirred via magnetic stirring bars and heated to 55° C. by immersion in a water bath for 115 hours.
Samples were then taken and analysed by ^13C-NMR spectroscopy (Bruker Avance 400).
The nature of data set [4]: Viscosity of absorbent (Anton Parr LOVIS 2000 ME, 40° C.). The following applies: imine added to fresh absorbent. The format is physicochemical. Here is the method:
Another sample of the aqueous absorbent, which had initially contained 3 mol/L 3-AMPy and 3 mol/L 2-amino-2-methyl-1-propanol (AMP) and was taken after c.a. 5000 hours (c.a. 208 days) of operation in the pilot plant campaign described in Example 2, was extracted with dichloromethane as described in Example 5. As a result of the extraction, the viscosity of the sample was reduced from 9.9 mPa·s to 6.0 mPa·s (measured at 40° C. using an Anton Parr LOVIS 2000 ME instrument). By comparison, the viscosity of the fresh, CO2 free absorbent was 4.7 mPa·s. The effect of the viscosity reduction is to improve the performance of the absorbent in the plant through better flow properties and reduced mass transfer resistance.
The synthesised imine (structure confirmed by IR spectroscopy) was added to fresh absorbent and the impact on viscosity measured (measured at 40° C. using an Anton Parr LOVIS 2000 ME).

Data set [5] is described as follows: Hydrolysis of imine dimer under acidic aqueous conditions. The format is physicochemical. The following applies: acetic acid and water with DCM solution, room temperature, 24 hours. An excerpt:
The imine of Formula (II) is found to be unstable in acidic aqueous conditions. For the case where the degradation product is extracted from the liquid absorbent into an organic solvent, hydrolysis may thus be achieved by contacting the separated organic phase with an acidified aqueous phase, for example containing a catalytic amount of acetic acid. After suitable mixing and time for hydrolysis, the two phases are separated by conventional liquid-liquid separation techniques, with the regenerated amine of Formula (I) partitioned into the aqueous phase and the less polar aldehyde of Formula (III) remaining in the organic phase. The aqueous phase, now containing a first portion of regenerated amine of Formula (I), may then be recycled to the gas absorption process. It will be appreciated that a theoretical maximum of 50 mol % of the degraded amine may be recovered by this process step, since each molecule of imine incorporates two amine molecules.
A sample of the aqueous absorbent, which had initially contained 3 mol/L 3-AMPy and 3 mol/L 2-amino-2-methyl-1-propanol (AMP) and was taken after c.a. 3800 hours (c.a. 158 days) of operation in the pilot plant campaign described in Example 2. The sample was shaken with an equal volume of dichloromethane (DCM) in a separating funnel for 1 minute. The phases were then allowed to separate and each phase was collected separately. […]

Data set [6] is described as follows: Extraction of imine dimer into organic solvents (liquid-liquid partition, GC-MS, 13C NMR). The class given is physicochemical. On the procedure: A sample of the aqueous absorbent, which had initially contained 3 mol/L 3-AMPy and 3 mol/L 2-amino-2-methyl-1-propanol (AMP), was taken after 3800 hours (c.a. 158 days) of operation in the pilot plant campaign described in Example 2. Despite the improved stability of the solution as a result of the AMP, it is evident from FIG. 3 that imine dimer degradation product was present in significant quantities (c.a. 0.2 mol/litre) by this time.
Equal volumes of the sample and dichloromethane were vigorously shaken in a separating funnel and allowed to undergo phase separation. The two phases were then collected and separately analysed by GC-MS. FIGS. 4 and 5 depict gas chromatographs of the organic and aqueous phases respectively, with the peaks identified by mass spectrometry via comparison against libraries of reference spectra.
Samples of the same aqueous absorbent were also extracted with equal volumes of toluene or ethyl acetate. The organic phases after extraction with dichloromethane, toluene and ethyl acetate were analysed by ^13C NMR.

Data set [7] in a line: Extraction of imine dimer by solid absorption on Amberlite XAD-2. The following applies: Amberlite XAD-2, stirred 2 hours, 13C NMR. The class given is physicochemical. Here is the method:
A sample of the aqueous absorbent, which had initially contained 3 mol/L 3-AMPy and 3 mol/L 2-amino-2-methyl-1-propanol (AMP), was taken after 5000 hours (c.a. 208 days) of operation in the pilot plant campaign described in Example 2. Despite the improved stability of the solution as a result of the AMP, imine dimer degradation product was present in significant quantities (c.a. 0.35 mol/litre) by this time.
Amberlite XAD-2, a hydrophobic crosslinked polystyrene copolymer resin, was washed 3 times in deionized water followed by washing 3 times in dichloromethane (DCM). The cleaned beads were mixed with the absorbent sample that had been exposed to 5000 hours of flue gas. The mixture was stirred for 2 hours to allow the hydrophobic components to adhere to the polymer resin. The mixture was filtered to remove the water soluble portion of the degraded amine absorbent. The beads were washed with water and this water added to the filtrate. The beads were then washed with 3 portions of DCM, and the collected DCM was partially evaporated.
Very little amine was extracted into the beads and carried over to the DCM wash, as evidenced by the lack of peaks near 42 ppm (these peaks are present in the sample and aqueous filtrate spectra). […]

Usually pKa stands for the negative logarithm of the acid dissociation constant.

Where two headings read alike, the source gives them in different places.

Regarding `CC(N)CO` (stereo not drawn) [2-amino-1-propanol], the “pKa at 25° C.” value in data set [1] (table in description) and in data set [1] (table of Example 4) was 9.5 in each case.
Regarding `OCC1CCNCC1` [4-piperidinylmethanol], in data set [1] (table of Example 4), the “pKa at 25° C.” value is on record as 10.6.
For the compound `NCc1ccccc1` [BZA, benzylamine], the “amine converted to imine” value in data set [2] is recorded as “approximately 41%”.
On to `NCc1cccnc1` [3-(aminomethyl)pyridine], for which the “DEA degradation (13C-NMR peak at 67 ppm) in presence of sacrificial amine” value in data set [3] is “this degradation has not occurred”.
As for `C(=NCc1cccnc1)c1cccnc1` [imine dimer], the “impact on viscosity of fresh absorbent” value in data set [4] is “increased with the concentration of synthetic imine added”. Moreover, the “stability under acidic aqueous conditions” value in data set [5] is listed as “unstable”. For the same compound, in data set [6] (dichloromethane, toluene or ethyl acetate, equal volumes, 13C NMR), the “extraction into organic phase” value is “successful and selective extraction”. Further, the “phase distribution after extraction” value in data set [6] (equal volumes of used absorbent sample and dichloromethane, GC-MS) is “almost exclusively present in the organic phase”. The “extraction by hydrophobic resin beads” value in data set [7] was “majority of the imine was extracted”.
For `NCC(=O)[O-].[Na+]` [sodium glycinate], the “pKa at 25° C.” value in data set [1] (table in description) and in data set [1] (table of Example 4) was 9.6 in each case.
In the case of `OCC1CCCCN1` (stereo not drawn) [2-piperidinylmethanol], the “pKa at 25° C.” value in data set [1] (table of Example 4) is recorded as 10.1.
Take `NCCS(=O)(=O)[O-].[K+]` [potassium taurate]: the “pKa at 25° C.” value in data set [1] (table in description) and in data set [1] (table of Example 4) was 9.1 in each case.
